Reference: patent publication US20180002320A1, “USE OF MACROCYCLIC PICOLINAMIDES AS FUNGICIDES” (DOW AGROSCIENCES LLC, priority 2014, published 2018)
Like-named read-outs stand apart in the source and are kept apart here.

Tests used:
Zymoseptoria tritici = assay: Leaf Blotch of Wheat (SEPTTR) fungicidal activity; assay type: in vivo; conditions: Low Volume (121.5 g/H)
Experimental: Technical grades of materials were dissolved in acetone, which were then mixed with nine volumes of H2O containing 110 ppm Triton X-100. The fungicide solutions were applied onto wheat seedlings using an automated booth sprayer to run-off. All sprayed plants were allowed to air dry prior to further handling. All fungicides were evaluated using the aforementioned method for their activity vs. all target diseases, unless stated otherwise. Wheat leaf blotch and brown rust activity were also evaluated using track spray applications, in which case the fungicides were formulated as EC formulations, containing 0.1% Trycol 5941 in the spray solutions. Wheat plants (variety Yuma) were grown from seed in a greenhouse in 50% mineral soil/50% soil-less Metro mix until the first leaf was fully emerged, with 7-10 seedlings per pot. These plants were inoculated with an aqueous spore suspension of Zymoseptoria tritici either prior to or after fungicide treatments. After inoculation the plants were kept in 100% relative humidity (one day in a dark dew chamber followed by two to three days in a lighted dew chamber at 20° C.) to permit spores to germinate and infect the leaf. The plants were then transferred to a greenhouse set at 20° C. for disease to develop. When disease symptoms were fully expressed on the 1st leaves of untreated plants, infection levels were assessed on a scale of 0 to 100 percent disease severity. Percent disease control was calculated using the ratio of disease severity on treated plants relative to untreated plants.

Puccinia triticina = assay: Wheat Brown Rust (PUCCRT) fungicidal activity; assay type: in vivo; conditions: Low Volume (121.5 g/H)
Experimental: Technical grades of materials were dissolved in acetone, which were then mixed with nine volumes of H2O containing 110 ppm Triton X-100. The fungicide solutions were applied onto wheat seedlings using an automated booth sprayer to run-off. All sprayed plants were allowed to air dry prior to further handling. All fungicides were evaluated using the aforementioned method for their activity vs. all target diseases, unless stated otherwise. Wheat leaf blotch and brown rust activity were also evaluated using track spray applications, in which case the fungicides were formulated as EC formulations, containing 0.1% Trycol 5941 in the spray solutions. Wheat plants (variety Yuma) were grown from seed in a greenhouse in 50% mineral soil/50% soil-less Metro mix until the first leaf was fully emerged, with 7-10 seedlings per pot. These plants were inoculated with an aqueous spore suspension of Puccinia triticina either prior to or after fungicide treatments. After inoculation the plants were kept in a dark dew room at 22° C. with 100% relative humidity overnight to permit spores to germinate and infect the leaf. The plants were then transferred to a greenhouse set at 24° C. for disease to develop. Fungicide formulation, application and disease assessment followed the procedures as described in the Example A.

[1] = 24 h, 1 Day Protectant, read-out: SEPTTR 1DP disease control
[2] = 72 h, 3 Day Curative, read-out: SEPTTR 3DC disease control
[3] = 24 h, 1 Day Protectant, read-out: PUCCRT 1DP disease control
[4] = 72 h, 3 Day Curative, read-out: PUCCRT 3DC disease control

SMILES: COc1ccnc(C(=O)N[C@H]2CCCC[C@H](OCc3ccccc3)[C@@H](OCc3ccccc3)[C@H](C)OC2=O)c1OC(C)=O [Compound 9]
- pest or weed control at 121.5 g/ha (Zymoseptoria tritici; [1]): > 80%
- pest or weed control at 121.5 g/ha (Zymoseptoria tritici; [2]): > 80%
- pest or weed control at 121.5 g/ha (Puccinia triticina; [3]): > 80%
- pest or weed control at 121.5 g/ha (Puccinia triticina; [4]): < 80%

SMILES: COc1ccnc(C(=O)N[C@H]2COCC[C@H](Cc3ccc(F)cc3)[C@@H](Oc3ccccc3)[C@H](C)OC2=O)c1OC(C)=O [Compound 71]
- pest or weed control at 121.5 g/ha (Zymoseptoria tritici; [1]): > 80%
- pest or weed control at 121.5 g/ha (Zymoseptoria tritici; [2]): > 80%
- pest or weed control at 121.5 g/ha (Puccinia triticina; [3]): > 80%
- pest or weed control at 121.5 g/ha (Puccinia triticina; [4]): > 80%

SMILES: COc1ccnc(C(=O)N[C@H]2COCC[C@H](Cc3ccc(F)cc3)[C@@H](OCC3CC3)[C@H](C)OC2=O)c1OC(C)=O [Compound 77]
- pest or weed control at 121.5 g/ha (Zymoseptoria tritici; [1]): > 80%
- pest or weed control at 121.5 g/ha (Zymoseptoria tritici; [2]): < 80%
- pest or weed control at 121.5 g/ha (Puccinia triticina; [3]): > 80%
- pest or weed control at 121.5 g/ha (Puccinia triticina; [4]): > 80%

SMILES: COc1ccnc(C(=O)N[C@H]2COCC[C@H](Cc3ccc(F)cc3)[C@@H](Oc3ccccc3)[C@H](C)OC2=O)c1OCOC(=O)C(C)C [Compound 73]
- pest or weed control at 121.5 g/ha (Zymoseptoria tritici; [1]): > 80%
- pest or weed control at 121.5 g/ha (Zymoseptoria tritici; [2]): > 80%
- pest or weed control at 121.5 g/ha (Puccinia triticina; [3]): > 80%
- pest or weed control at 121.5 g/ha (Puccinia triticina; [4]): > 80%

SMILES: COc1ccnc(C(=O)N[C@H]2CCOC[C@H](Cc3ccccc3)[C@@H](OCC(C)C)[C@H](C)OC2=O)c1OCOC(C)=O [Compound 16]
- pest or weed control at 121.5 g/ha (Zymoseptoria tritici; [1]): < 80%
- pest or weed control at 121.5 g/ha (Zymoseptoria tritici; [2]): < 80%
- pest or weed control at 121.5 g/ha (Puccinia triticina; [3]): > 80%
- pest or weed control at 121.5 g/ha (Puccinia triticina; [4]): < 80%

SMILES: COc1ccnc(C(=O)N[C@H]2COCC[C@H](Cc3ccc(F)cc3)[C@@H](OCC3CC3)[C@H](C)OC2=O)c1OCOC(C)=O [Compound 74]
- pest or weed control at 121.5 g/ha (Zymoseptoria tritici; [1]): > 80%
- pest or weed control at 121.5 g/ha (Zymoseptoria tritici; [2]): < 80%
- pest or weed control at 121.5 g/ha (Puccinia triticina; [3]): > 80%
- pest or weed control at 121.5 g/ha (Puccinia triticina; [4]): > 80%

SMILES: COc1ccnc(C(=O)N[C@H]2CCCC[C@H](CC3CCCC3)[C@@H](Oc3ccccc3)[C@H](C)OC2=O)c1OCOC(C)=O [Compound 50]
- pest or weed control at 121.5 g/ha (Zymoseptoria tritici; [1]): > 80%
- pest or weed control at 121.5 g/ha (Zymoseptoria tritici; [2]): < 80%
- pest or weed control at 121.5 g/ha (Puccinia triticina; [3]): > 80%
- pest or weed control at 121.5 g/ha (Puccinia triticina; [4]): > 80%

SMILES: COc1ccnc(C(=O)N[C@H]2COCC[C@H](Cc3ccccc3)[C@@H](OCC(C)C)[C@H](C)OC2=O)c1OC(C)=O [Compound 21]
- pest or weed control at 121.5 g/ha (Zymoseptoria tritici; [1]): < 80%
- pest or weed control at 121.5 g/ha (Zymoseptoria tritici; [2]): > 80%
- pest or weed control at 121.5 g/ha (Puccinia triticina; [3]): > 80%
- pest or weed control at 121.5 g/ha (Puccinia triticina; [4]): > 80%

SMILES: COc1ccnc(C(=O)N[C@H]2CCCC[C@H](CC3CCCC3)[C@@H](Oc3ccccc3)[C@H](C)OC2=O)c1OC(C)=O [Compound 52]
- pest or weed control at 121.5 g/ha (Zymoseptoria tritici; [1]): > 80%
- pest or weed control at 121.5 g/ha (Puccinia triticina; [3]): > 80%
- pest or weed control at 121.5 g/ha (Puccinia triticina; [4]): < 80%

SMILES: CCCO[C@H]1COCC[C@H](NC(=O)c2nccc(OC)c2OCOC(C)=O)C(=O)O[C@@H](C)[C@@H]1Oc1ccccc1 [Compound 41]
- pest or weed control at 121.5 g/ha (Zymoseptoria tritici; [1]): > 80%
- pest or weed control at 121.5 g/ha (Zymoseptoria tritici; [2]): > 80%
- pest or weed control at 121.5 g/ha (Puccinia triticina; [3]): > 80%
- pest or weed control at 121.5 g/ha (Puccinia triticina; [4]): > 80%

SMILES: CCCO[C@H]1CCCC[C@H](NC(=O)c2nccc(OC)c2OCOC(C)=O)C(=O)O[C@@H](C)[C@@H]1Oc1ccccc1 [Compound 23]
- pest or weed control at 121.5 g/ha (Zymoseptoria tritici; [1]): > 80%
- pest or weed control at 121.5 g/ha (Zymoseptoria tritici; [2]): > 80%
- pest or weed control at 121.5 g/ha (Puccinia triticina; [3]): > 80%
- pest or weed control at 121.5 g/ha (Puccinia triticina; [4]): > 80%

SMILES: CCCO[C@H]1[C@H](C)OC(=O)[C@@H](NC(=O)c2nccc(OC)c2OCOC(C)=O)CCOC[C@@H]1Oc1ccccc1 [Compound 42]
- pest or weed control at 121.5 g/ha (Zymoseptoria tritici; [1]): < 80%
- pest or weed control at 121.5 g/ha (Zymoseptoria tritici; [2]): < 80%
- pest or weed control at 121.5 g/ha (Puccinia triticina; [3]): > 80%
- pest or weed control at 121.5 g/ha (Puccinia triticina; [4]): < 80%

SMILES: CC[C@H]1CCOC[C@H](NC(=O)c2nccc(OC)c2OC(C)=O)C(=O)O[C@@H](C)[C@@H]1OC(=O)c1ccccc1 [Compound 80]
- pest or weed control at 121.5 g/ha (Zymoseptoria tritici; [1]): > 80%
- pest or weed control at 121.5 g/ha (Zymoseptoria tritici; [2]): < 80%
- pest or weed control at 121.5 g/ha (Puccinia triticina; [3]): > 80%
- pest or weed control at 121.5 g/ha (Puccinia triticina; [4]): > 80%

SMILES: COc1ccnc(C(=O)N[C@H]2CCOC[C@H](OCC(C)C)[C@@H](Oc3ccccc3)[C@H](C)OC2=O)c1OCOC(C)=O [Compound 45]
- pest or weed control at 121.5 g/ha (Zymoseptoria tritici; [1]): > 80%
- pest or weed control at 121.5 g/ha (Zymoseptoria tritici; [2]): > 80%
- pest or weed control at 121.5 g/ha (Puccinia triticina; [3]): > 80%
- pest or weed control at 121.5 g/ha (Puccinia triticina; [4]): > 80%

SMILES: COc1ccc(C[C@H]2CCOC[C@H](NC(=O)c3nccc(OC)c3OCOC(C)=O)C(=O)O[C@@H](C)[C@@H]2Oc2ccccc2)cc1 [Compound 66]
- pest or weed control at 121.5 g/ha (Zymoseptoria tritici; [1]): > 80%
- pest or weed control at 121.5 g/ha (Zymoseptoria tritici; [2]): > 80%
- pest or weed control at 121.5 g/ha (Puccinia triticina; [3]): > 80%
- pest or weed control at 121.5 g/ha (Puccinia triticina; [4]): < 80%
